Data as given in US10058633B2, “Biodegradable scaffolds” (Board of Regents of the University of Texas System, priority 2010, dated 2018).

Test system: Human umbilical vein endothelial cells (HUVEC)
Experiment: Cellular uptake of FITC-BSA released from PLGA/pSi microspheres (transwell, confocal)
Assay type: cell-based
Conditions: 7 days
Method: 40,000 HUVEC were seeded and cultured on a glass coverslip in a 12 well plate with 500 million PLGA/pSi microspheres loaded with FITC-BSA in a transwell on top of the cells. The media were changed every 3 days. Cellular uptake of FITC-BSA released from the PLGA/pSi microspheres was observed by confocal microscopy staining cells with fluorescent phalloidin (actin filaments) and DRAQ5 (nuclei) after fixation (10% formaldehyde).
Detection of the FITC-BSA loaded pSi particles was based on autofluorescence using 488 excitation laser and the cells were analyzed by using 561 and 632 excitation laser for pholloidin and DRAQ5 respectively. Images were acquired using a Leica MD 6000 upright confocal microscope equipped with a 63× oil immersion objective.

Question: With “BSA in solution: control group: bovine serum albumin in solution” as the substance, how does the “BSA accumulation in cells” value read?
Answer: did not show any BSA accommulation in cells
